Test results reported in publication PMC8836147, “Design, Synthesis and Antifungal/Nematicidal Activity of Novel 1,2,4-Oxadiazole Derivatives Containing Amide Fragments” (International Journal of Molecular Sciences, 2022).
In brackets after ≈: the same amount, converted by molar mass.

Key:
S. sclerotiorum [1] = test: In vitro mycelium growth inhibition test; format: cell-based; details: Sclerotinia sclerotiorum, mycelial growth, mean ± SD of three replicates; for inhibition at 50 µg/mL: 50 μg/mL, read-out: Inhibition Rate (%) S. sclerotiorum; for EC50: read-out: EC50 against S. sclerotiorum
Procedure: (§1) B. cinerea and S. scleotiorum were kindly provided by the Department of Pesticides, College of Plant Protection, Nanjing Agricultural University (Nanjing, China). All compounds were evaluated for mycelium growth inhibition tests against the two plant pathogenic fungi mentioned in previous reports. These two fungi were inoculated on potato dextrose agar (PDA) plates and were grown in biochemical incubators at 25 ± 1 °C for 2–4 days. The new mycelium was used to determine the antifungal activity. The target compounds were dissolved in 100 µL DMF, and they were then added into the PDA media to make the concentration 50 µg/mL. Mycelia dishes of about 5 mm in diameter were cut from the culture medium. Mycelium were picked up with a sterile inoculation needle, and the sample was inoculated in the middle of a PDA plate in a sterile environment. Afterwards, a preliminary screening of fungal activity was performed. […] Each test was carried out three times. The radial growth of the fungal colonies was gauged and recorded when the diameters of the blank control mycelia reached 5.0–5.5 cm. […] The final data were analyzed using SPSS v.25.0 (IBM, New York, NY, USA). The following formula was used to calculate the fungi inhibition rate. Inhibition rate (%) = [(Mycelium diameter of negative control − Mycelium diameter of treatment)/(Mycelium diameter of negative control − 0.5)] × 100%(1)

B. cinerea = test: In vitro mycelium growth inhibition test; format: cell-based; details: Botrytis cinerea; 50 μg/mL; mycelial growth; mean ± SD of three replicates; read-out: Inhibition Rate (%) B. cinerea
Procedure: as §1

MTT cytotoxicity assay = format: cell-based; details: human, L-02 normal liver cells, L-02 cells
Procedure: The human liver L-02 cells were obtained from the biology laboratory in Key Laboratory of Chemistry for Natural Products of Guizhou Province and Chinese Academy of Sciences (Guiyang, China). The cells were grown in Dulbecco’s Modified Eagle’s Medium (supplemented with 10% (v/v) FBS, 100 U/mL penicillin, and 100 μg/mL streptomycin) at 37 °C in a CO2 incubator (5% CO2 and 95% air, 95% humidity). The effect of some compounds on cell viability was determined with the MTT assay according to the previously published literature. A total of 5000 cells were inoculated in a 96-well plate and three wells of each concentration of test compound were used. A total of 24 h after inoculation, the cells had grown to ~60% confluency, and different concentrations of compounds were added, and then the cells were cultured for 48 h. DMSO was used as the control. A total of 20 μL of MTT solution was added to each well and incubated at 37 °C for 4 h. Formazan crystals were dissolved in 150 μL of DMSO and quantified using a microplate reader (Thermo Scientific, Vario Skan Flash, Shanghai Bio-Gene Technology Co., LTD, Shanghai, China) at 490 nm. The cytotoxicity was calculated according to following formula:Cytotoxicity (%) = [(OCK − OT)/OCK] × 100%(2) where OCK represents the optical density (OD) value of the blank control group, and OT represents the OD value of experimental group.

S. sclerotiorum [2] = test: In vivo curative activity assay on infected cole leaves; design: species or system Sclerotinia sclerotiorum; details: sprayed 24 h after inoculation, 72 h
Source text: (§2) Susceptible cole leaves collected from Guizhou Academy of Agricultural Sciences were used to determine the in vivo efficacy of F15 according to previous literature. […] Vaccination time was used to distinguish between the protective activity assays and curative activity assays. A 5 mm mycelia dish was placed at the widest center of the cole leaf, and it was ensured that it was not placed on the main vein of the leaf. For the protective activity assay, test compounds with different concentrations were sprayed on the leaves until the liquid reached the surface. Inoculation was conducted after 24 h. For the curative activity assay, which took place 24 h after inoculation, compounds of different concentrations were sprayed on the surfaces of the leaves until the liquid flowed. Fluopyram and sterile distilled water were used as a positive control and negative control, respectively. All of the inoculated leaves were placed inside of a 25 °C light incubator with 85% relative humidity and a 16 h photoperiod for disease development. The average diameters of the lesions were measured using the cross method after 72 h. The disease control efficacy was obtained through the following formula:Control efficacy (%) = (1 − DT/DCK) × 100%(4) where DCK represents the lesion diameter of the sterile distilled water control, and DT represents the lesion diameters of the treatment samples. Each test was carried out five times, and the experiment was performed three times.

C. elegans = test: microbe, parasite or virus in culture; details: Caenorhabditis elegans, 48 h, read-out: Corrected Mortality Rate ± SD (%) C. elegans
Source text: (§3) M. incognita (parasitic on tomato plants), A. besseyi (potato dextrose agar–Botrytis cinerea breeding), B. xylophilus (potato dextrose agar–Botrytis cinerea breeding), and C. elegans (nematode growth medium–inactivated Escherichia coli OP50 cultivation) were provided by the Fine Chemical Research and Development Center of Guizhou University (Guizhou, China). The methodology used for the nematocidal bioassays of these target compounds was modified in the light of the conventional methods reported in the previously published literature. The nematicidal activity of the target compounds against four nematodes was determined using 48-well biochemical culture dishes. All of the compounds were dissolved with 100 μL DMF and were diluted with 1% Tween-80 to obtain 200 and 50 μg/mL concentrations for the bioassays. Fosthiazate and tioxazafen were used as positive controls at the same concentrations, and a negative control group was prepared without compounds using the same methodology. An amount of 10 µL of nematode suspension (about 50 nematodes) and 300 µL of the trial solution were added to corresponding hole, and each treatment was set to three repetitions. All of the 48-well plates were placed in a biochemical incubator at 27 °C for dark light culture. […] Corrected mortality (%) = [(mortality of treatment % − mortality of negative control %)/(1 − mortality of negative control %)] × 100%(3)

B. xylophilus = test: microbe, parasite or virus in culture; details: Bursaphelenchus xylophilus, 48 h, read-out: Corrected Mortality Rate ± SD (%) B. xylophilus
Source text: as §3

M. incognita = test: microbe, parasite or virus in culture; details: Meloidogyne incognita, 48 h, read-out: Corrected Mortality Rate ± SD (%) M. incognita
Source text: as §3

A. besseyi = test: microbe, parasite or virus in culture; details: Aphelenchoides besseyi, 48 h, read-out: Corrected Mortality Rate ± SD (%) A. besseyi
Source text: as §3

S. sclerotiorum [3] = test: In vivo protective activity assay on infected cole leaves; design: species or system Sclerotinia sclerotiorum; details: sprayed 24 h before inoculation, 72 h
Source text: as §2

Structure (SMILES)	inhibition at 50 µg/mL (S. sclerotiorum [1]) [%]	EC50 (S. sclerotiorum [1]) [µg/mL]	inhibition at 50 µg/mL (B. cinerea) [%]	cytotoxicity at 48 h, 50 μg/mL (MTT cytotoxicity assay) [%]	cytotoxicity at 48 h, 100 μg/mL (MTT cytotoxicity assay) [%]	cytotoxicity at 48 h, 200 μg/mL (MTT cytotoxicity assay) [%]	mortality at 50 µg/mL (C. elegans) [%]	mortality at 200 µg/mL (C. elegans) [%]	mortality at 50 µg/mL (B. xylophilus) [%]	mortality at 200 µg/mL (B. xylophilus) [%]	mortality at 50 µg/mL (M. incognita) [%]	mortality at 200 µg/mL (M. incognita) [%]	mortality at 50 µg/mL (A. besseyi) [%]	mortality at 200 µg/mL (A. besseyi) [%]	other results
Cc1nc(C(F)(F)F)c(C(=O)Nc2c(Br)cc(OC(F)(F)F)cc2Br)s1 [Thifluzamide, thifluzamide, reference compound]	86.7 ± 0.3	4.3 ± 1.7 (≈ 8.14 µM)	80.3 ± 0.2	33.3 ± 1.8	33.7 ± 0.4	33.9 ± 1.5									
O=C(NCCc1ncc(C(F)(F)F)cc1Cl)c1ccccc1C(F)(F)F [Fluopyram, fluopyram, reference compound]	93.7 ± 1.7	1.2 ± 1.6 (≈ 3.02 µM)	87.3 ± 0.6	3.8 ± 2.5	40.1 ± 1.2	55.1 ± 0.4	100	100	100	100	100	100	100	100	Curative Effect Control Efficacy (%) (S. sclerotiorum [2]; 25 μg/mL): 65.0%; Curative Effect Lesion Length (S. sclerotiorum [2]; 25 μg/mL): 7.7 ± 0.6 mm; Curative Effect Control Efficacy (%) (S. sclerotiorum [2]; 50 μg/mL): 71.4%; Curative Effect Lesion Length (S. sclerotiorum [2]; 50 μg/mL): 6.3 ± 0.2 mm; Curative Effect Control Efficacy (%) (S. sclerotiorum [2]; 100 μg/mL): 74.1%; Curative Effect Lesion Length (S. sclerotiorum [2]; 100 μg/mL): 5.7 ± 0.6 mm; Protective Effect Control Efficacy (%) (S. sclerotiorum [3]; 25 μg/mL): 66.8%; Protective Effect Lesion Length (S. sclerotiorum [3]; 25 μg/mL): 7.9 ± 0.1 mm; Protective Effect Control Efficacy (%) (S. sclerotiorum [3]; 50 μg/mL): 69.3%; Protective Effect Lesion Length (S. sclerotiorum [3]; 50 μg/mL): 7.3 ± 0.2 mm; Protective Effect Control Efficacy (%) (S. sclerotiorum [3]; 100 μg/mL): 75.6%; Protective Effect Lesion Length (S. sclerotiorum [3]; 100 μg/mL): 5.8± 0.1 mm
O=C(NCCc1ccccn1)c1nc(-c2ccc(Cl)cc2)no1 [Compound F9, 3-(4-chlorophenyl)-N-(2-(pyridin-2-yl)ethyl)-1,2,4-oxadiazole-5-carboxamide]	61.1 ± 0.7	18.7 ± 0.4 (≈ 56.9 µM)	26.7 ± 0.5	-2.5 ± 0.2	7.1 ± 6.5	31.5 ± 8.7	62.1 ± 2.2	87.6 ± 1.1	0	14.5 ± 2.5	9.8 ± 2.5	56.3 ± 2.4	0	12.8 ± 2.3	
O=C(NCCc1ccccn1)c1nc(-c2ccccc2)no1 [Compound F1, 3-Phenyl-N-(2-(pyridin-2-yl)ethyl)-1,2,4-oxadiazole-5-carboxamide]	73.2 ± 0.1	20.8 ± 0.8 (≈ 70.7 µM)	24.2 ± 0.2	4.7 ± 4.9	10.9 ± 5.9	15.4 ± 4.4	51.3 ± 2.2	88.7 ± 1.3	0	6.1 ± 1.1	6.9 ± 2.1	43.5 ± 2.3	0	6.9 ± 1.2	
